Measured values: paper PMC7718273 (Scientific Reports, 2020)
Like-named read-outs stand apart in the source and are kept apart here.

Key:
[1] = Microsomal stability, human; assay type: in vitro ADME; details: liver microsomes, pH 7.4, 0.5 mg/mL, NADPH, read-out: Microsomal stability (% remaining at 60 min)
Method: (§1) Aliquots were then transferred in duplicate to: (i) a final concentration plate that was immediately quenched with 23.6 ng/mL internal standard (IS, chlorpropamide) in acetonitrile (ACN) or (ii) tubes, which were centrifuged for 5 min at 4℃ (14,000 rpm). The samples were subjected to LC–MS/MS analysis on an AB Sciex 4000 Q Trap hybrid triple quadrupole linear ion-trap MS (AB Sciex, Framingham, MA) coupled to an Agilent 1200 HPLC (Agilent Tech. Santa Clara, CA) with a reverse-phase Kinetex XB-C18 column (2.1 × 100 mm, 2.6 µm; Phenomenex). Mobile phases were comprised of 0.1% formic acid (FA) in water (A) and 0.1 FA in ACN (B). Data analysis was performed using […] (Ver. 1.6.1).

[2] = test system: Normal cynomolgus monkeys; assay: In vivo study using cynomolgus monkeys: plasma concentration and intact FGF21; details: cynomolgus monkeys (n = 3), 50 mg/kg intranasal, range of individual animals
Method: Intact FGF21 levels in plasma were measured by ELISA.
FAP activity and intact FGF21 concentrations were measured as described above.

[3] = Microsomal stability, mouse; assay type: in vitro ADME; details: liver microsomes, pH 7.4, mouse (M), 0.5 mg/mL, NADPH, read-out: Microsomal stability (% remaining at 60 min)
Method: as §1

[4] = target: T1, serum FAP (Mus musculus, UniProt P97321); assay: IC50 on serum FAP, mice; assay type: biochemical
T1 construct: from tissue; host or cells: mouse serum/plasma (ob/ob and C57BL/6J mice)

[5] = Pharmacokinetic study in monkeys; assay type: in vivo; details: male, cynomolgus, cynomolgus monkey, plasma, inhaled or intranasal; for AUC(0-t): read-out: AUC(0–6 h)
Method: Six male cynomolgus monkeys (4.5–5.5 kg) were obtained from Sichuan Primed Shines Bio-tech Co., Ltd (Chengdu, Sichuan, China) and maintained at 18–26 °C, a relative humidity of 40%-70%, a minimum of 8 air changes/h, and a 12-h light/12-h dark cycle. […] Plasma sample preparations and analysis were the same as described in mice study.

T1 sequence (P97321 24-761 limits assumed): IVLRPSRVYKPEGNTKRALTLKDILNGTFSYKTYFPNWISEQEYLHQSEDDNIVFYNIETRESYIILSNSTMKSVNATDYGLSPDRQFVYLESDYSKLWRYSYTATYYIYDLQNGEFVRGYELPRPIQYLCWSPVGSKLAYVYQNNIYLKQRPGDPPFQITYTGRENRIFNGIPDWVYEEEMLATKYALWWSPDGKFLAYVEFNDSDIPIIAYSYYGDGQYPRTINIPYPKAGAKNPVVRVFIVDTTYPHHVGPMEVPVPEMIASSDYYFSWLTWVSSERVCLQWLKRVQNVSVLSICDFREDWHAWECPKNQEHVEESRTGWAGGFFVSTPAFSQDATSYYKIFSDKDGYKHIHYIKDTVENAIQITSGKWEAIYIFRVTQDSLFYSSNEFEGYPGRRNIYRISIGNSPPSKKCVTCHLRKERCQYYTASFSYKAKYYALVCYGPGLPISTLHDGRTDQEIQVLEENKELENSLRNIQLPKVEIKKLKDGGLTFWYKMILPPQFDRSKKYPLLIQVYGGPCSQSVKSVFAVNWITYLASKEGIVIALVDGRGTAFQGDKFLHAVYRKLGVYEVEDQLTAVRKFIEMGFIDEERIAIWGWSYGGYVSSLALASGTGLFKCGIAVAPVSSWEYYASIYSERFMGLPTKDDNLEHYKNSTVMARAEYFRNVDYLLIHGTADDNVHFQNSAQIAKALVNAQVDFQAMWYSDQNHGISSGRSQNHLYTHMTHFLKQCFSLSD

N#Cc1ccc(Cc2nc(C(=O)NCC(=O)N3CC(F)(F)C[C@H]3C#N)cs2)cc1 [BR103354, (S)-N-(2-(2-cyano-4,4-difluoropyrrolidin-1-yl)-2-oxoethyl)-2-(4-cyanobenzyl)thiazole-4-carboxamide]
remaining at 1 h, 1 µM [1]: 95% | increase of intact FGF21, maximal [2]: 1.5–3.5 fold | remaining at 1 h, 1 µM [3]: 98% | IC50 ([4]; mice, monkeys and humans together, read-out: serum FAP IC50 values, all three species): 27 to 31 nM | IC50 ([4]; read-out: Serum FAP IC50 (nM): Mouse): 31 nM | Cmax ([5]; monkey, 10 mg/kg intranasally): 420 ng/mL | Tmax ([5]; monkey, 10 mg/kg intranasally): 2.3 h | AUC(0-t) ([5]; monkey, 10 mg/kg intranasally): 1200 ng·h/mL | half-life ([5]; monkey, 10 mg/kg intranasally, read-out: T1/2 (converted)): 1.3 h | Cmax ([5]; monkey, 30 mg/kg intranasally): 2000 ng/mL | Tmax ([5]; monkey, 30 mg/kg intranasally): 2.3 h | AUC(0-t) ([5]; monkey, 30 mg/kg intranasally): 6400 ng·h/mL | half-life ([5]; monkey, 30 mg/kg intranasally, read-out: T1/2 (converted)): 2.8 h | half-life ([5]; monkeys, 10/30 mg/kg, read-out: half-life (T1/2), range over doses): 1.3 to 2.8 h | Tmax ([5]; monkeys, dose not given in the sentence (10/30 mg/kg)): 2.3 h
